{"source": "patent US7091183B1", "about": "(Boston Medical Center Corporation, priority 1996, dated 2006)", "key": {"rat GIP receptor [1]": {"target": "T1, rat GIP receptor (Rattus norvegicus, UniProt P43219)", "T1 construct": "expressed in transfected cells; host or cells: L cells (LGIPR2), also carrying a VIP-promoter/lacZ cAMP reporter", "T1 sequence (P43219 19-455)": "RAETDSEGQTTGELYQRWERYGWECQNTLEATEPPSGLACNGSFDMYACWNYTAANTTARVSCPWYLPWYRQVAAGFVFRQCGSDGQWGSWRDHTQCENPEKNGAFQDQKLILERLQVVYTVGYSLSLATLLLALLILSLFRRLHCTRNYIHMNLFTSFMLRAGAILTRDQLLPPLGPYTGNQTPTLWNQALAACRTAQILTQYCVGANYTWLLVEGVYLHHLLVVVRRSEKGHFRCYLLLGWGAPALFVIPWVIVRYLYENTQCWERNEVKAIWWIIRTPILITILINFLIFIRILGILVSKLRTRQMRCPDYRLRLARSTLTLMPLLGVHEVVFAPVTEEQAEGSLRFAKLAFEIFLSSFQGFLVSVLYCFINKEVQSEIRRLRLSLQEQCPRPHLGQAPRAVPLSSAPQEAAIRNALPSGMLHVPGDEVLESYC", "experiment": "Inhibition of GIP (1–42)-stimulated cAMP-dependent β-galactosidase production in LGIPR2 cells", "assay_type": "cell-based", "method": "LGIPR2 cells are stably transfected with a cAMP-dependent promoter from the VIP gene fused to the bacterial lac Z gene. When intracellular cAMP increases within these cells, lac Z gene transcription is activated, resulting in the accumulation of its product, β-galactosidase. The measurement of β-galactosidase in this system provided a convenient, inexpensive, and nonradioactive method for detecting changes in the levels of intracellular cAMP.\nLGIPR2 cells were grown in Dulbecco's Modified Eagle's Medium (DMEM) containing 4.5 g/L of glucose and 10% fetal calf serum. For each assay, 10^5 cells/well were seeded onto 24-well plates. After incubation overnight, peptides were added in various concentrations to the wells in the absence of 3-isobutyl-methylxanthine (IBMX) for 4 h, at which time maximal stimulation of β-galactosidase was determined. The medium was then removed and wells rinsed once with phosphate-buffered saline (PBS). The plates were then blotted briefly and frozen overnight at −70° C., and, after the addition of chlorophenol red-β-D-galactopyranoside, accumulated β-galactosidase was detected using a calorimetric assay, as described previously (Usdin, et al., 1993, Endocrinology, 133:2861–2870).\nValues are expressed as the mean±SE of quadruplicate measurements."}, "fasted anesthetized rats": {"system": "fasted anesthetized rats", "experiment": "Intravenous infusion of peptides in fasting anesthetized rats, plasma insulin", "assay_type": "in vivo, rat"}, "conscious trained rats": {"system": "conscious trained rats", "experiment": "Postprandial plasma insulin, serum glucose and GLP-1 in trained conscious fed rats", "assay_type": "in vivo, rat", "details": "for postprandial plasma insulin concentration: chow 30 min", "method": "Postprandial plasma insulin and serum glucose levels were studied in conscious trained rats. […] To avoid such a response, rats were trained for 10 d before experimentation. They were fasted from 17:00 to 08:00, and 0.9% NaCl (0.3 ml) was injected subcutaneously at 08:00 before feeding. After the injection of 0.9% NaCl, animals were given rat chow for 30 min, after which it was removed. At the end of ten days, the rats were accustomed to the injection and ate quickly (consuming 4–6 g of rat chow within 30 min).\nOn the day of the experiment, after fasting from 17:00 the night before, trained rats were injected subcutaneously at 08:00 with 0.3 ml of either 0.9% NaCl or ANTGIP (SEQ ID NO:8) (100 nmol/kg). This dose was chosen to approximately the amount of peptide used in the anesthetized animal studies of Example 3. After injection, six of the fasted control rats were killed to obtain baseline serum glucose and insulin levels. ANTGIP (SEQ ID NO:8)- or 0.9% NaCl-treated rats (n=6 in each group) were exposed to chow for 30 min, after which food was withdrawn."}, "rat GIP receptor [2]": {"target": "T1, rat GIP receptor", "experiment": "cAMP-dependent β-galactosidase production in LGIPR2 cells (agonist activity)", "assay_type": "cell-based", "text": "LGIPR2 cells are stably transfected with a cAMP-dependent promoter from the VIP gene fused to the bacterial lac Z gene. When intracellular cAMP increases within these cells, lac Z gene transcription is activated, resulting in the accumulation of its product, β-galactosidase. The measurement of β-galactosidase in this system provided a convenient, inexpensive, and nonradioactive method for detecting changes in the levels of intracellular cAMP. […] The medium was then removed and wells rinsed once with phosphate-buffered saline (PBS). The plates were then blotted briefly and frozen overnight at −70° C., and, after the addition of chlorophenol red-β-D-galactopyranoside, accumulated β-galactosidase was detected using a calorimetric assay, as described previously (Usdin, et al., 1993, Endocrinology, 133:2861–2870). […] Natl. Acad. Sci. USA, 90:1992–1996)."}, "rats": {"system": "rats", "experiment": "Oral glucose tolerance test in rats", "assay_type": "in vivo, rat", "details": "ANTGIP 300 ng/kg i.p., glucose 1 g per kg by gavage", "method": "Oral glucose tolerance tests were performed on rats injected intraperitoneally with ANTGIP (SEQ ID NO:8) (300 ng/kg) or 0.9% saline solution. After the intraperitoneal injection of 0.9% NaCl or ANTGIP (SEQ ID NO:8), an oral glucose tolerance test was performed. The test was done by administering a 40% glucose solution by oral gavage at a dose of 1 g per kg. The volume administered to each rat was approximately 0.5 ml. Blood was obtained at various time points for subsequent measurement of plasma insulin and glucose levels."}, "[3]": {"system": "jejunal test segment of anesthetized rats", "experiment": "Intestinal glucose absorption from perfused jejunal segment", "assay_type": "in vivo, rat", "details": "ANTGIP 10 nmol/kg i.v. single injection, 30 minute perfusion", "method": "Male Sprague-Dawley rats weighing about 200–250 g are fasted overnight and anesthetized using intraperitoneal urethane (about 1.25 g per kg body weight). After midline laparotomy, an about 30-cm segment of jejunum, starting at about 5 cm distal to the ligament of Treitz, is isolated and flushed with approximately 20 ml of about 0.9% NaCl. The jejunal test segments are each perfused twice, initially with control buffer and then once again with control buffer or with the test solution. The test solution consists of Kres-Ringer-bicarbonate buffer containing about 5 mmol/L [^14C]D-glucose, and ^3H-labeled polyethylene glycol is included in the luminal perfusate to correct for fluid movement. The test or control solution is perfused through the jejunal segment without recirculation at a flow rate of about 1.6 ml/min, using a Harvard PHD 2000 syringe pump (Harvard Apparatus, Millis, Mass.). The effluent from the luminal segment is collected at about 5-min intervals for about 30 min. After the initial period of perfusion, the luminal contents in the jejunum are flushed with about 20 ml of about 0.9% NaCl prior to the initiation of the second period of perfusion.\nData points are believed to represent the rate of glucose disappearance from the luminal perfusate corrected for fluid movement. Results are expressed as the mean±SE of five experiments. […]"}, "[4]": {"details": "20 min, ANTGIP 100 nmol/kg s.c."}, "[5]": {"details": "40 min, ANTGIP 100 nmol/kg s.c."}}, "note": "Where no end group is shown, it is not given here."}
{"substance": "ISDYSIAMDKIRQQDFVNWLLAQK-NH2 [ANTGIP, GIP (7–30)-NH2]", "values": [{"measurement": "IC50", "setting": "rat GIP receptor [1]", "value": 100, "unit": "nM"}, {"measurement": "antagonism of the cAMP stimulatory effect of GIP (1–42)", "setting": "rat GIP receptor [1]; 10^−8 M GIP (1–42) plus fragment at 10^−8 M or 10^−6 M, 4 h", "value": "attenuate the cAMP stimulatory effects"}, {"measurement": "change in the insulin response to GLP-1, glucose or arginine", "setting": "fasted anesthetized rats; ANTGIP 100 nmol/kg concomitantly", "value": "No significant change"}, {"measurement": "effect on the insulinotropic properties of GIP", "setting": "fasted anesthetized rats; ANTGIP 100 nmol/kg concomitantly with GIP 1.5 nmol/kg", "value": "completely abolished"}, {"measurement": "effect on insulin secretion, alone", "setting": "fasted anesthetized rats; ANTGIP infusion alone, 30 min", "value": "had no effect on insulin secretion"}, {"measurement": "postprandial serum GLP-1 level", "setting": "conscious trained rats; [4]", "value": "290 ± 10", "unit": "pg/mL"}, {"measurement": "postprandial plasma insulin concentration", "setting": "conscious trained rats; [4]", "value": "25.3±4.7", "unit": "μIU/ml"}, {"measurement": "postprandial serum GLP-1 concentration", "setting": "conscious trained rats; [5]", "value": "330±20", "unit": "pg/mgl"}, {"measurement": "postprandial plasma insulin concentration", "setting": "conscious trained rats; [5]", "value": "27.1±2.6", "unit": "μIU/ml"}, {"measurement": "postprandial serum glucose concentration versus saline", "setting": "conscious trained rats; ANTGIP 100 nmol/kg s.c.", "value": "similar"}, {"measurement": "decrease in postprandial insulin release", "setting": "conscious trained rats; chow-fed rats", "value": 72, "unit": "%"}, {"measurement": "stimulation of cAMP-dependent β-galactosidase production (versus GIP (1–42) / above control levels)", "setting": "rat GIP receptor [2]; 10^−8 M peptide, 4 h", "value": "none"}, {"measurement": "increase in cAMP-dependent β-galactosidase level", "setting": "rat GIP receptor [2]; concentration as high as 10^−4 M", "value": "did not stimulate a detectable increase"}, {"measurement": "plasma glucose after oral glucose versus control rats", "setting": "rats", "value": "diminished at all time points"}, {"measurement": "plasma insulin levels after oral glucose", "setting": "rats", "value": "reduced plasma insulin levels"}, {"measurement": "absorption of D-glucose from the jejunal test segment", "setting": "[3]", "value": "significantly reduce"}]}
